≈ marks a conversion by molar mass, not a printed value.
What was measured:
Aphidius rhopalosiphi = experiment: LR50; higher = less toxic; details: acute; mortality
Folsomia candida = details: chronic/long-term; duration: 28 days; reproduction
Colinus virginianus = details: acute; oral; mortality
Apis mellifera = details: acute, mortality
Tagia sp. = details: chronic/long-term; duration: 56 days; reproduction
Bibionidae = details: chronic/long-term; duration: 28 days
Anas platyrhynchos = details: reproductive
Oncorhynchus mykiss = details: acute; duration: 96 hours; mortality
Daphnia magna = details: chronic/long-term; duration: 21 days

CCOC(=O)Nc1cccc(OC(=O)Nc2ccccc2)c1 [Desmedipham]
LR50 (Aphidius rhopalosiphi): 63.8 g/ha
NOEC (Folsomia candida): 158 mg/kg
LD50 (Rattus norvegicus; acute, oral, mortality): > 5000 mg/kg-day
NOAEL (Rattus norvegicus; chronic, duration: 2 years, hematological): 3.2 mg/kg-day
NOAEL (Rattus norvegicus; reproduction developmental, M, reproduction): 4 mg/kg-day
NOAEL (Rattus norvegicus; subchronic, duration: 90 days, oral, hematological): 5.2 mg/kg-day
LD50 (Colinus virginianus): > 2000 mg/kg-day
LD50 (Apis mellifera; dermal): > 100 µg/piece
LD50 (Apis mellifera; oral, unspecified): > 101 µg/piece
NOEC (Tagia sp.): 64 mg/kg
NOEC (Bibionidae): 0.14 mg/L
NOAEL (Anas platyrhynchos): 11 mg/kg-day
LC50 (Oncorhynchus mykiss): 1.41 µg/mL (≈ 4.7 µM)
NOEC (Daphnia magna): 0.02 mg/L

Source: EPA's ToxValDB 9.5 (doi:10.2903/j.efsa.2018.5150)
